In ChEMBL document CHEMBL3272344, “Synthesis of 5-substituted aminomethyluracils via the Mannich reaction” (J Med Chem, 1976):
Calls of active or inactive are those of the source. The rule behind the calls is not given here.

Legend:
Gallus gallus [1] = experiment: Toxicity in Plasmodium gallinaceum B infected chick at 160 mg/kg; assay type: organism-based; set-up: dose 160 mg/kg; conditions: chicken, in vivo
Mus musculus [2] = experiment: Toxicity in mouse L1210 cells allografted mouse up to 400 mg/kg; assay type: organism-based; set-up: dose 400 mg/kg; conditions: in vivo
Plasmodium gallinaceum [3] = experiment: Antimalarial activity against Plasmodium gallinaceum B infected in chick at 160 mg/kg; assay type: functional, organism-based; set-up: dose 160 mg/kg
L1210 = experiment: Antitumor activity against mouse L1210 cells allografted in mouse up to 400 mg/kg; assay type: functional, organism-based; set-up: dose 400 mg/kg
Mus musculus [4] = experiment: Toxicity in Plasmodium berghei infected mouse at 320 mg/kg; assay type: organism-based; set-up: dose 320 mg/kg; conditions: in vivo
Plasmodium berghei [5] = experiment: Antimalarial activity against Plasmodium berghei infected in mouse at 320 mg/kg; assay type: functional, organism-based; set-up: dose 320 mg/kg
Mus musculus [6] = experiment: Toxicity in Plasmodium berghei infected mouse at 640 mg/kg; assay type: organism-based; set-up: dose 640 mg/kg; conditions: in vivo
Plasmodium gallinaceum [7] = experiment: Antimalarial activity against Plasmodium gallinaceum B infected in chick at 100 mg/kg; assay type: functional, organism-based; set-up: dose 100 mg/kg
Plasmodium berghei [8] = experiment: Antimalarial activity against Plasmodium berghei infected in mouse at 640 mg/kg; assay type: functional, organism-based; set-up: dose 640 mg/kg
Gallus gallus [9] = experiment: Toxicity in Plasmodium gallinaceum B infected chick at 100 mg/kg; assay type: organism-based; set-up: dose 100 mg/kg; conditions: chicken, in vivo
Plasmodium gallinaceum [10] = experiment: Antimalarial activity against Plasmodium gallinaceum B infected in chick at 120 mg/kg; assay type: functional, organism-based; set-up: dose 120 mg/kg
Gallus gallus [11] = experiment: Toxicity in Plasmodium gallinaceum B infected chick at 120 mg/kg; assay type: organism-based; set-up: dose 120 mg/kg; conditions: chicken, in vivo

| Compound | Activity (Mus musculus [2]) | Activity (L1210) | Activity (Mus musculus [4]) | Activity (Plasmodium berghei [5]) | Activity (Mus musculus [6]) | Activity (Plasmodium berghei [8]) | also measured |
| --- | --- | --- | --- | --- | --- | --- | --- |
| O=c1[nH]cc(CNC2CCCCC2)c(=O)[nH]1 | Non-toxic | inactive | Non-toxic | inactive | – | – | Activity (Gallus gallus [1]): Non-toxic; Activity (Plasmodium gallinaceum [3]): inactive |
| CCCCNCc1c[nH]c(=O)[nH]c1=O | – | – | – | – | Non-toxic | inactive | Activity (Plasmodium gallinaceum [7]): inactive; Activity (Gallus gallus [9]): Non-toxic |
| COc1ccc(NCc2c[nH]c(=O)[nH]c2=O)cc1 | – | – | Non-toxic | inactive | – | – | Activity (Gallus gallus [1]): Non-toxic; Activity (Plasmodium gallinaceum [3]): inactive |
| Cc1cccc(NCc2c[nH]c(=O)[nH]c2=O)c1 | – | – | – | – | Non-toxic | inactive | – |
| O=c1[nH]cc(CNc2ccc(Cl)cc2)c(=O)[nH]1 | – | – | Non-toxic | inactive | – | – | – |
| CN(C)Cc1c[nH]c(=O)[nH]c1=O | Non-toxic | inactive | – | – | – | – | – |
| O=c1[nH]cc(CNc2ccccc2)c(=O)[nH]1 | Non-toxic | inactive | – | – | Non-toxic | inactive | Activity (Plasmodium gallinaceum [10]): inactive; Activity (Gallus gallus [11]): Non-toxic |
